# Test results published in EP2574339A1, “Pharmaceutical preparation for treating NADH-related illnesses” (Huber, Johannes, priority 2011, dated 2013).
# “Also recorded” adds a separate entry of the source.
# Tests used:
# [1] = test system: menschlichen Zellen; test: Mitochondrial NAD+ generation / PAR formation from extracellular precursors with inhibitors, cell line not stated; assay type: cell-based; details: for Funktion von NMN als extrazellulärer NAD^+-Vorläufer: NMN as precursor in presence of nucleoside transporter inhibitor (2 µM Dipyridamol, 10 µM NBTI); for NR-Nutzung: NR as precursor, nucleoside transporter inhibitor added
# [2] = test system: menschlichen Zellen; test: Cell viability (MTT assay) with extracellular precursors and inhibitors, cell line not stated; assay type: cell-based
# [3] = test system: HeLa S3-Zellen; test: Cell viability (MTT assay) of HeLa S3 cells; assay type: cell-based, menschlichen Zellen; details: for Überleben: FK866 (2 µM), 100 µM metabolite, 96 h, Fig. 3B
# Experimental: (§1) Inhibitoren (2 µM FK866, 2 mM 3-AB, 10 µM NBTI, 2 µM Dipyridamol, 2 mM CMP, 25 µM PPADS, 1 mM Ap4A) oder Metaboliten (100 µM NAD^+, 100 µM NAAD, 100 µM NMN, 100 µM NAMN, 100 µM NA, 100 µM NR) wurden dem Zellkulturmedium zugesetzt, wie angegeben. […] Die Behandlung mit Inhibitoren und Metaboliten wurde für 24-48 h vor der Analyse von PAR Bildung und die Lebensfähigkeit der Zellen durchgeführt (72 h für 293mitoPARP Zellen, 96 h für HeLa S3-Zellen und 120 h für HepG2-Zellen). Die Lebensfähigkeit der Zellen wurde mittels MTT-Assay bestimmt.
# [4] = test system: 293mitoPARP Zellen; test: Cell viability (MTT assay) of 293mitoPARP cells; assay type: cell-based, menschlichen Zellen; details: for Zell-Überleben: FK866 (2 µM), 100 µM metabolite, 72 h, Fig. 3A
# Experimental: as §1
# [5] = test system: 293mitoPARP Zellen; test: Mitochondrial NAD+ content by PAR formation (mitoPARP) in 293mitoPARP cells; assay type: cell-based, menschlichen Zellen; details: NamPRT inhibited by FK866 (2 µM), 100 µM metabolite in the medium, Fig. 3A
# Experimental: Inhibitoren (2 µM FK866, 2 mM 3-AB, 10 µM NBTI, 2 µM Dipyridamol, 2 mM CMP, 25 µM PPADS, 1 mM Ap4A) oder Metaboliten (100 µM NAD^+, 100 µM NAAD, 100 µM NMN, 100 µM NAMN, 100 µM NA, 100 µM NR) wurden dem Zellkulturmedium zugesetzt, wie angegeben. NR wurde wie beschrieben bereitgestellt (Dölle et al., Anal. Biochem. 385 (2009), 377-379). Die Behandlung mit Inhibitoren und Metaboliten wurde für […] vor der Analyse von PAR Bildung und die Lebensfähigkeit der Zellen durchgeführt (72 h für 293mitoPARP Zellen, 96 h für HeLa S3-Zellen und 120 h für HepG2-Zellen). Die Lebensfähigkeit der Zellen wurde mittels MTT-Assay bestimmt.
# Es wurden 293mitoPARP Zellen bereitgestellt, die ein Fusionsprotein exprimieren ("mitoPARP"), bestehend aus EGFP und PARP1cd (poly-ADP-Ribose-Polymerase-1), welches auf die mitochondriale Matrix abgezielt wurde. Mit mitochondrialem NAD^+ als Substrat generieren diese Zellen konstitutiv Protein-gebundenes PAR (Protein-gebundene poly-ADP-Ribose), welches immunchemisch visualisiert wird. Variationen im Umfang der erfassten PAR spiegeln damit Veränderungen des mitochondrialen NAD^+-Gehaltes wider. Ebenso wurde die transiente Expression von mitoPARP in HepG2 und HeLa S3 Zellen verwendet.
# Ein PAR-Signal hängt sowohl von der katalytischen Aktivität von mitoPARP als auch von der Anwesenheit von NAD^+ ab. Folglich erlaubt die mitoPARP-Expression die Erkennung von Änderungen im mitochondrialen NAD^+-Gehalt.
# [6] = test system: HeLa S3 Zellen; test: Mitochondrial NAD+ content by PAR formation (transient mitoPARP) in HeLa S3 cells; assay type: cell-based, menschlichen Zellen; details: FK866 (2 µM), 100 µM metabolite, Fig. 3B
# [7] = extracellular NR (100 µM), b59: in Gegenwart von CMP, Fig. 4B
# [8] = NMN as precursor, 2 mM CMP added
# [9] = NAD^+ as extracellular precursor, inhibitor added (25 µM PPADS), cell line not stated
# [10] = NAD^+ as extracellular precursor, competitive NPP substrate added (1 mM Ap4A), effect similar to PPADS
smiles,measurement,setting,value
"NC(=O)c1ccc[n+]([C@@H]2O[C@H](CO)[C@@H](O)[C@H]2O)c1 [NR, 1-[3,4-Dihydroxy-5-(hydroxymethyl)oxolan-2-yl]pyridin-5-carboxamid]",mitochondriale PAR-Bildung / mitochondriale NAD^+-Generierung,[1]; [7],unterstützt
same,Zelllebensfähigkeit / Zellviabilität,[2]; [7],unterstützt
Nc1ccn([C@@H]2O[C@H](COP(=O)(O)O)[C@@H](O)[C@H]2O)c(=O)n1 [CMP],Zellviabilität,[3]; [8],verringert
same,Zellviabilität,[4]; [8],verringert
O=[N+]([O-])c1ccc(CSc2ncnc3c2ncn3[C@@H]2O[C@H](CO)[C@@H](O)[C@H]2O)cc1 [NBTI],Funktion von NMN als extrazellulärer NAD^+-Vorläufer,[1]; Fig. 4A,verlor NMN seine Funktion
same,NR-Nutzung,[1]; Fig. 4B,hemmen
OCCN(CCO)c1nc(N2CCCCC2)c2nc(N(CCO)CCO)nc(N3CCCCC3)c2n1 [Dipyridamol],Funktion von NMN als extrazellulärer NAD^+-Vorläufer,[1]; Fig. 4A,verlor NMN seine Funktion
same,NR-Nutzung,[1]; Fig. 4B,hemmen
Cc1nc(N=Nc2ccc(S(=O)(=O)O)cc2S(=O)(=O)O)c(COP(=O)(O)O)c(C=O)c1O [PPADS],Wiederherstellung des mitochondrialen NAD^+-Pools,[1]; [9],verhindert
same,Überleben der Zelle,[2]; [9],verhindert
"O=C([O-])c1ccc[n+]([C@@H]2O[C@H](COP(=O)(O)O)[C@@H](O)[C@H]2O)c1 [NAMN, Nikotinsäure-Mononukleotid]",mitochondriale NAD^+-Generierung von NAMN,"[1]; NAMN as precursor in presence of CMP, Dipyridamol, NBTI, Fig. 4A","sensitiv gegenüber diesen Inhibitoren, wenn auch weniger stark"
same,Überleben,[3],schützen; also recorded: Restaurierung des Überlebens
same,Zell-Überleben,[4],schützen; also recorded: wiederherstellen
same,mitochondrialer NAD^+-Gehalt (PAR),[5],unterstützen; also recorded: wiederherstellen
same,mitochondriale NAD^+-Bildung,[6],unterstützen
"O=C(O)c1cccnc1 [NA, Nikotinsäure]",Überleben,[3],Restaurierung des Überlebens
same,Zell-Überleben,[4],wiederherstellen
same,mitochondrialer NAD^+-Gehalt (PAR),[5],wiederherstellen
O=C(/C=C/c1cccnc1)NCCCCC1CCN(C(=O)c2ccccc2)CC1 [FK866],Nam Nutzung,"[1]; 2 µM FK866, Fig. 3",gehemmt
"Nc1ncnc2c1ncn2[C@@H]1O[C@H](COP(=O)(O)OP(=O)(O)OP(=O)(O)OP(=O)(O)OC[C@H]2O[C@@H](n3cnc4c(N)ncnc43)[C@H](O)[C@@H]2O)[C@@H](O)[C@H]1O [Ap4A, Diadenosintetraphosphat]",Lebensfähigkeit der Zellen,[3]; [10],ähnlichen Effekt
same,Lebensfähigkeit der Zellen,[4]; [10],ähnlichen Effekt
"NC(=O)c1ccc[n+]([C@@H]2O[C@H](COP(=O)([O-])O)[C@@H](O)[C@H]2O)c1 [NMN, Nikotinamid-Mononukleotid]",Überleben,[3],schützen; also recorded: Restaurierung des Überlebens
same,Zell-Überleben,[4],schützen; also recorded: wiederherstellen
same,mitochondrialer NAD^+-Gehalt (PAR),[5],unterstützen; also recorded: wiederherstellen
same,mitochondriale NAD^+-Bildung,[6],unterstützen
